In patent publication US8377489B2, “Banana treatments” (Rohm and Haas Company, priority 2008, dated 2013):

Test system: Banana fruit
Assay: Ripening of bananas after 1-MCP dip of varied duration and ethylene exposure (Comparative Example 1)
Format: in vivo, Musa
Details: 20 microgram 1-MCP per liter with 0.6 ml/l NuFilm 17; for peel colour after 12 days: 12 days after exposure to ethylene
Text: The following Examples, the color of banana peels is rated according to a seven stage rating scale, published by Chiquita Brands International, Inc. (http://www.chiquita.com/chiquita/Discover/cbripen.asp): stage 1 (dark green); stage 2 (all light green); stage 3 (more green than yellow); stage 4 (more yellow than green); stage 5 (green tips and necks); stage 6 (all yellow; maybe light green necks, no green tips); stage 7 (yellow flecked with brown). Consumers generally prefer to eat bananas in stage 5 or stage 6.
Banana fruit with an age of 12 weeks, grown and treated in Costa Rica. The bananas were dipped (not sprayed). The solution of every 1-MCP treatment included 0.6 ml/l NuFilm 17® 96% (elastomer-forming additive, Miller Chemical and Fertilizer Co.). Control sample had no dip. Other samples were dipped in water solution in which powdered encapsulation complex of 1-MCP in alpha-cyclodextrin was added to water to give concentration of 20 microgram 1-MCP per liter. Bananas were dipped for zero time (in and out), 5 minutes, or 20 minutes.
After 1-MCP treatment, fruit were allowed to dry on racks after treatments before being repacked in the boxes. The boxes were stored at 14° C. for 7 days. The boxes were conditioned at 20-21° C. for 6 hours before being treated with a continuous stream of 100 microliter per liter ethylene in a treatment chamber at 20° C. by 24 hours. After ethylene treatment the boxes were kept at ambient conditions (20° C. and 95% RH). Bananas were inspected at 5, 7, 10, and 12 days after exposure to ethylene.
Complete randomized design was used, with 4 treatments and 2 boxes per treatment. Clusters from each treatment were evaluated every two days after ethylene treatment.

## CC1=CC1 [Treatment 1-MCP, 1-methylcyclopropene]
Dipped for 5 minutes
  ripening: did not ripen normally
  peel colour after 12 days: remained green
Dipped for 20 minutes
  ripening: did not ripen normally
  peel colour after 12 days: remained green
Dipped in and out quickly (zero time)
  difference in ripening versus control bananas: No significant difference
